Experimental findings from patent publication US20110044938A1 (NYCOMED GMBH, priority 2006, published 2011) are described below.

The test system of assay [1] is RKO (RKOp27) human colon adenocarcinoma cells. The experiment in a line: Alamar Blue cell viability assay, anti-proliferative/cytotoxic activity on proliferating RKO subclones. Format: cell-based. The note with it: RKOp27, 72 h, RKO p27 uninduced (proliferating) cells, value = class bound given in Table A, read-out: −logIC50 RKO p27 uninduced (proliferating) (converted). The method, then: The anti-proliferative/cytotoxic activity of the compounds described herein, can be tested on subclones of RKO (RKOp27) human colon adenocarcinoma cells (Schmidt et al., Oncogene 19, 2423-2429; 2000) using the Alamar Blue cell viability assay (described in O'Brien et al. Eur J Biochem 267, 5421-5426, 2000). The compounds are dissolved as 20 mM solutions in dimethylsulfoxide (DMSO) and subsequently diluted in semi-logarithmic steps. DMSO dilutions are further diluted 1:100 into Dulbecco's modified Eagle's medium (DMEM) containing 10% fetal calf serum to a final concentration twice as much as the final concentration in the test. RKO subclones are seeded into 96 well flat bottom plates at a density of 5000 cells per well in a volume of 50 μl per well. 24 hours after seeding the 50 μl each of the compound dilutions in DMEM medium are added into each well of the 96 Well plate. Each compound dilution is tested as quadruplicates. Wells containing untreated control cells are filled with 50 μl DMEM medium containing 1% DMSO. The cells are then incubated with the substances for 72 hours at 37° C. in a hunified atmosphere containing 5% carbon dioxide. To determine the viability of the cells, 10 μl of an Alamar Blue solution (Biosource) are added and the fluorescence is measured at an extinction of 544 nm and an emission of 590 nm. For the calculation of the cell viability the emission value from untreated cells is set as 100% viability and the emission rates of treated cells are set in relation to the values of untreated cells. Viabilities are expressed as % values.
The corresponding IC50 values of the compounds for anti-proliferative/cytotoxic activity are determined from the concentration-effect curves.
(§1) Representative −log IC50 [mol/l] values for anti-proliferation/cytotoxicity determined in the mentioned assays follow from the following table A, in which the numbers of the compound correspond to the numbers of the examples.

The subject of assay [2] is subclones of RKO colon adenocarcinoma cells (RKOp27 or RKOp21) arrested by Ponasterone A. The experiment in a line: Alamar Blue cell viability assay, cell cycle specific mode of action: cells arrested by ectopic p27Kip1 induced by Ponasterone A versus proliferating cells. The note with it: Homo sapiens, RKO p27 induced (arrested) cells, 10 μM Ponasterone A, 72 hours, value = class bound given in Table A, read-out: −logIC50 RKO p27 induced (arrested) (converted). The class given is cell-based. The method, then:
To determine the cell cycle specific mode of action, subclones of RKO colon adenocarcinoma cells (RKOp27 or RKOp21 as described by Schmidt et al. in Oncogene 19, 2423-2429; 2000) are seeded into 96 well flat bottom plates at a density of 15000 cells per well in a volume of 50 μl per well in DMEM growth medium with 10% FCS containing 10 μM Ponasterone A. 24 hours after seeding the 50 μl each of the compound dilutions in DMEM medium are added into each well of the 96 Well plate. Each compound dilution is tested as quadruplicates. Wells containing untreated control cells are filled with 50 μl DMEM medium containing 1% DMSO. The cells are then incubated with the substances for 72 hours at 37° C. in a humidified athmosphere containing 5% carbon dioxide. To determine the viability of the cells, 10 μl of an Alamar Blue solution (Biosource) are added and the fluorescence was measured at an extinction of 544 nm and an emission of 590 nm. For the calculation of the cell viability the emission value from untreated cells is set as 100% viability and the emission rates of treated cells are set in relation to the values of untreated cells. Viabilities are expressed as % values. Viability is compared of proliferating cells grown in the absence of the inducer Ponasterone A, versus viability of cells arrested by the expression of ectopic p27Kip1 induced by Ponasterone A.
as §1
For orientation: Alamar Blue is a resazurin reagent that responds to reducing activity.

SMILES strings stand for the structures. Some results are limits rather than exact numbers.

On to `Cn1cnc(CNC(=O)OCC2CCc3c(sc(NC(=O)/C=C/c4cccnc4)c3C#N)C2)c1` (centres unmarked) [Example 44, (1-Methyl-1H-imidazol-4-ylmethyl)-carbamic acid 3-cyano-2-((E)-3-pyridin-3-yl-allanoylamino)-4,5,6,7-tetrahydro-benzo[b]thiophen-6-ylmethyl ester], for which the IC50 in assay [1] was at most 0.501 µM; in assay [2] it was at least 100 µM.
On the same counts, the results for `Cn1ccnc1CNC(=O)OCC1CCc2c(sc(NC(=O)/C=C/c3cccnc3)c2C#N)C1` (centres unmarked) [Example 45, (1-Methyl-1H-imidazol-2-ylmethyl)-carbamic acid 3-cyano-2-((E)-3-pyridin-3-yl-allanoylamino)-4,5,6,7-tetrahydro-benzo[b]thiophen-6-ylmethyl ester] are 0.501 to 2 µM and at least 100 µM.
For `Cn1nccc1CNC(=O)OCC1CCc2c(sc(NC(=O)/C=C/c3cccnc3)c2C#N)C1` (centres unmarked) [Example 46, (2-Methyl-2H-pyrazol-3-ylmethyl)-carbamic acid 3-cyano-2-((E)-3-pyridin-3-yl-allanoylamino)-4,5,6,7-tetrahydro-benzo[b]thiophen-6-ylmethyl ester], the IC50 is at most 0.501 µM in assay [1] and at least 100 µM in assay [2].
On to `Cc1cc(CNC(=O)OCC2CCc3c(sc(NC(=O)/C=C/c4cccnc4)c3C#N)C2)no1` (centres unmarked) [Example 47, (5-Methyl-isoxazol-3-ylmethyl)-carbamic acid 3-cyano-2-((E)-3-pyridin-3-yl-allanoylamino)-4,5,6,7-tetrahydro-benzo[b]thiophen-6-ylmethyl ester], for which the IC50 in assay [1] was at most 0.501 µM; in assay [2], at least 100 µM.
On the same counts, the results for `Cc1cc(CNC(=O)OC[C@H]2CCc3c(sc(NC(=O)/C=C/c4cccnc4)c3C#N)C2)no1` [Example 47a, (S)-(5-Methyl-isoxazol-3-ylmethyl)-carbamic acid 3-cyano-2-((E)-3-pyridin-3-yl-allanoylamino)-4,5,6,7-tetrahydro-benzo[b]thiophen-6-ylmethyl ester] are at most 0.501 µM and at least 100 µM.
Taken in the same sequence, the figures for `Cc1cc(CNC(=O)OC[C@@H]2CCc3c(sc(NC(=O)/C=C/c4cccnc4)c3C#N)C2)no1` [Example 47b, (5-Methyl-isoxazol-3-ylmethyl)-carbamic acid (R)-3-cyano-2-((E)-3-pyridin-3-yl-allanoylamino)-4,5,6,7-tetrahydro-benzo[b]thiophen-6-ylmethyl ester] were at most 0.501 µM and at least 100 µM.
Taken in the same sequence, the figures for `COC(=O)OCC1CCc2c(sc(NC(=O)/C=C/c3cccnc3)c2C#N)C1` (centres unmarked) [Example 49, Carbonic acid 3-cyano-2-((E)-3-pyridin-3-yl-allanoylamino)-4,5,6,7-tetrahydro-benzo[b]thiophen-6-ylmethyl ester methyl ester] were 0.501 to 2 µM and at least 100 µM.
`Cn1cc(CNC(=O)OCC2CCc3c(sc(NC(=O)/C=C/c4cccnc4)c3C#N)C2)cn1` (centres unmarked) [Example 50, (1-Methyl-1H-pyrazol-4-ylmethyl)-carbamic acid 3-cyano-2-((E)-3-pyridin-3-yl-allanoylamino)-4,5,6,7-tetrahydro-benzo[b]thiophen-6-ylmethyl ester]: the IC50 is at most 0.501 µM in assay [1] and at least 100 µM in assay [2].
On the same counts, the results for `Cn1cccc1CNC(=O)OCC1CCc2c(sc(NC(=O)/C=C/c3cccnc3)c2C#N)C1` (centres unmarked) [Example 51, (1-Methyl-1H-pyrrol-2-ylmethyl)-carbamic acid 3-cyano-2-((E)-3-pyridin-3-yl-allanoylamino)-4,5,6,7-tetrahydro-benzo[b]thiophen-6-ylmethyl ester] are 0.501 to 2 µM and at least 100 µM.
Taken in the same sequence, the figures for `CCn1nccc1CNC(=O)OCC1CCc2c(sc(NC(=O)/C=C/c3cccnc3)c2C#N)C1` (centres unmarked) [Example 52, (2-Ethyl-2H-pyrazol-3-ylmethyl)-carbamic acid 3-cyano-2-((E)-3-pyridin-3-yl-allanoylamino)-4,5,6,7-tetrahydro-benzo[b]thiophen-6-ylmethyl ester] were 0.501 to 2 µM and at least 100 µM.
